How the values were obtained:
[1] = system: HaCaT keratinocytes and human sebaceous gland cells; test: Evaluation of sebum production inhibitory activity (Oil Red O staining of triglycerides); assay type: cell-based; details: retinol 0.3 ppm (comparison); one day
Text: In order to efficiently evaluate the sebum production inhibitory activity of the plant extracts of the present disclosure, sebaceous gland cells and keratinocytes were used together, and an environment in vitro model similar to that of human sebaceous glands of the hair was used. HaCaT (ATCC, Va., USA), keratinocytes (Cellprogen, Calif., USA) cells and human sebaceous gland cells were inoculated into a 24-well culture plate at 3.75×10^4 cells and 6.0×10^4 cells, respectively. After inoculation, it was allowed to stand for one day so that the cells adhered to the bottom of the culture plate. At this time, 10% of fetal bovine serum (JRH Bioscience, Tokyo, Japan), […] of streptomycin (the above two reagents, GIBCO, Milan, Italy) were added to DMEM medium (Invitrogen, Carlsbad, Calif.) and used as a medium. After one day, the cells were treated with 50 μM of linoleic acid, 50 μM of arachidonic acid, or 10 nM of dihydrotestosterone, as a stimulating source for causing seborrheic skin inflammation. […] After one day, the amount of triglycerides produced in the cells was measured using Oil Red O staining. […] Then, the […], and the absorbance was measured at 520 nm using a spectrophotometer for quantification. […]

[2] = system: procollagen-I in human fibroblasts; test: Evaluation of procollagen-I production activity (ELISA of culture solution); assay type: cell-based; details: TGF-β1 0.005 ppm (comparison); two days after treatment
Text: An enzyme-linked immunosorbent assay (ELISA) method was used to confirm the amount of procollagen-I produced by the plant extracts of the present disclosure (Youngren et al., 1999). Since procollagen-I is a substance secreted out of cells, the culture solution of the fibroblasts treated with the samples was collected and applied to the experiment as a measurement method for confirming the expression change using the cell culture solution.
Specifically, human fibroblasts (Cell biologics, IL, USA) were inoculated into a 24-well culture plate at 2.5×10^4 cells. After inoculation, it was allowed to stand for one day so that the cells adhered to the bottom of the culture plate. At this time, 2% of low serum growth supplement (LSGS; Thermo Fisher, Mass., USA), […] of streptomycin (the above two reagents, GIBCO, Milan, Italy) were added to 106 medium (Thermo Fisher, Mass., USA) and used as a medium. Each plant extract obtained in Reference Examples 1 to 7 in the experimental group was dissolved in DMSO to make a 1% solution, and then diluted in DMEM medium, and treated to a final concentration of 50 ppm. In addition, for comparison, TGF-β1, known to have the ability to produce procollagen-I, was treated at a concentration of 0.005 ppm instead of the plant extracts. Two days after the treatment with the samples, the production of procollagen-I was measured. […]

Row | Compound | Inhibition rate of sebum production (%) [1] | Production rate of Procollagen-I (%) [2]
1 | CC1=C(/C=C/C(C)=C/C=C/C(C)=C/CO)C(C)(C)CCC1 [Retinol] | 42.1% | –
2 | TGF-β1: known to have the ability to produce procollagen-I; comparison | – | 52.1%

From US11672753B2, “Composition for sebum control and pore minimizing” (AMOREPACIFIC CORPORATION, priority 2017, dated 2023)
